We go through eleven compounds from US12685983B2, “Benefit agent delivery system” (ITC Limited, priority 2020, dated 2026).

Structures are written as SMILES. Like-named read-outs stand apart in the source and are kept apart here.

For data set [1] the following is noted: cited from earlier work.
A short description of data set [2]: GC-head space: effect of enablers on the encapsulation of menthol and limonene combination by PVP. The data set is classed as physicochemical. The settings on record: for GC-HS area (% of control sample) Limonene / GC-HS area (% of control sample) Menthol / GC-HS area Limonene / GC-HS area Menthol: menthol + limonene with PVP.
Data set [3] can be described thus: GC-head space: effect of enablers on the encapsulation of menthol by PVP. As to conditions: for GC-HS area Menthol / ability of enabler to encapsulate menthol: with PVP; for GC-HS area (% of control sample): menthol, control without PVP; for ability of enabler to encapsulate menthol: GC-Head space against control. The data set is classed as physicochemical.
Data set [4] is described as follows: UV-vis spectroscopy of enabler interaction with PVP (absorbance at 236 nm). The data set is classed as physicochemical.
The nature of data set [5]: GC head space of benefit agents in the presence of PVP and BHT. The data set is classed as physicochemical.

As for `CCCCCCCCCCCCN` [Dodecyl amine], in data set [1], the LogP value was 4.76.
Turning to `CCCCC(CC)COC(=O)C=Cc1ccc(OC)cc1` (stereo not shown) [Octyl methoxy cinnamate], the LogP value in data set [1] was 5.8.
Take `CCCCCCCCCCN` [decyl amine]: in data set [1], the LogP value was 1.92.
As to `CC1CCC(C(C)C)C(O)C1` (stereo not shown) [Menthol], in data set [2] (PVP with enablers), the “selectivity of encapsulation in menthol and limonene combination” value is recorded as “preferentially encapsulated as against limonene”.
As to `Cc1cc(C(C)(C)C)c(O)c(C(C)(C)C)c1` [BHT, Butylated hydroxy toluene], the “GC-HS area Menthol” value in data set [3] (enabler concentration 0.05%) was 10608; in data set [3] (enabler concentration 0.1%) it was 10773; in data set [3] (enabler concentration 0.5%) it was 8798; in data set [2] (enabler 0.05%) it was 4929; in data set [2] (enabler 0.1%) it was 6449; in data set [2] (enabler 0.5%) it was 12330. For the same compound, the “GC-HS area (% of control sample)” value in data set [3] (enabler 0.05%) is listed as 14.14 % of control sample; in data set [3] (enabler 0.1%), 14.36 % of control sample; in data set [3] (enabler 0.5%) it was 11.73 % of control sample. The “GC-HS area (% of control sample) Limonene” value in data set [2] (enabler 0.05%) is recorded as 108.95 % of control sample; in data set [2] (enabler 0.1%), 102.91 % of control sample; in data set [2] (enabler 0.5%), 108.30 % of control sample. Moreover, the “GC-HS area (% of control sample) Menthol” value is given as 23.30 % of control sample in data set [2] (enabler 0.05%), 30.48 % of control sample in data set [2] (enabler 0.1%) and 58.28 % of control sample in data set [2] (enabler 0.5%). In addition, the “GC-HS area Limonene” value is listed as 1813235 in data set [2] (enabler 0.05%), 1866057 in data set [2] (enabler 0.1%) and 2020945 in data set [2] (enabler 0.5%). Moreover, the Absorbance in data set [4] (236 nm, enabler 10 ppm with PVP in 95% v/v ethanol) is reported as 0.155. Further, the “interaction of enabler with PVP” value in data set [4] (UV-vis, 10 ppm) is “comparatively lower activities”.
On to `CCCCCCCCCCCC(=O)OC` [methyl laurate], for which the LogP value in data set [1] is recorded as 5.41.
With `CCCCCCCCCCCCCCCCO` [Cetyl alcohol, reference compound], the LogP value in data set [1] is 7.25. Further, the “interaction of the enabler with the polymer” value in data set [4] (UV-vis, concentration not given) was “No interaction”.
Take `Oc1cc(Cl)ccc1Oc1ccc(Cl)cc1Cl` [Triclosan]: in data set [3], the “ability of enabler to encapsulate menthol” value (shortened to “ability of enabler”) is listed as “effectively encapsulate menthol”. Also, the “GC-HS area Menthol” value in data set [3] (enabler concentration 0.05%) was determined as 4977; in data set [3] (enabler concentration 0.1%) it was 3482; in data set [3] (enabler concentration 0.3%) it was 6103; in data set [2] (enabler 0.05%) it was 759; in data set [2] (enabler 0.1%) it was 274; in data set [2] (enabler 0.5%) it was 841. In addition, the “GC-HS area (% of control sample)” value is recorded as 6.63 % of control sample in data set [3] (enabler 0.05%), 4.64 % of control sample in data set [3] (enabler 0.1%) and 8.14 % of control sample in data set [3] (enabler 0.3%). Moreover, the “GC-HS area (% of control sample) Limonene” value is recorded as 95.29 % of control sample in data set [2] (enabler 0.05%), 99.50 % of control sample in data set [2] (enabler 0.1%) and 105.82 % of control sample in data set [2] (enabler 0.5%). Further, the figures for the “GC-HS area (% of control sample) Menthol” value in data set [2] (enabler 0.05%), in data set [2] (enabler 0.1%) and in data set [2] (enabler 0.5%) were 3.59 % of control sample, 1.30 % of control sample and 3.98 % of control sample, respectively. Also, the “GC-HS area Limonene” value in data set [2] (enabler 0.05%) was found to be 1925700; in data set [2] (enabler 0.1%), 1916012; in data set [2] (enabler 0.5%) it was 2027488. In data set [4], this compound showed an Absorbance of 0.961. Also, the “interaction of enabler with PVP” value in data set [4] is reported as “stronger interaction with PVP”.
With `CC1=CCC2CC1C2(C)C` (stereo not drawn) [α-Pinene], the LogP value in data set [1] was 4.83. The “encapsulation by PVP in the presence of BHT as enabler” value in data set [5] is reported as “not encapsulated”.
`CC(C)=O` [Acetone]: the “ability of enabler” value in data set [3] is “effectively encapsulate menthol”. Also, the “GC-HS area Menthol” value turned out to be 541 in data set [3] (enabler concentration 0.05%); 179 in data set [3] (enabler concentration 0.1%); 199 in data set [3] (enabler concentration 0.5%); 220 in data set [2] (enabler 0.05%); 369 in data set [2] (enabler 0.1%); 891 in data set [2] (enabler 0.5%). The “GC-HS area (% of control sample)” value in data set [3] (enabler 0.05%) is 0.72 % of control sample; in data set [3] (enabler 0.1%), 0.24 % of control sample; in data set [3] (enabler 0.5%), 0.27 % of control sample. Also, the figures for the “GC-HS area (% of control sample) Limonene” value in data set [2] (enabler 0.05%), in data set [2] (enabler 0.1%) and in data set [2] (enabler 0.5%) were 88.91 % of control sample, 103.37 % of control sample and 106.24 % of control sample, respectively. Also, the figures for the “GC-HS area (% of control sample) Menthol” value in data set [2] (enabler 0.05%), in data set [2] (enabler 0.1%) and in data set [2] (enabler 0.5%) were 1.04 % of control sample, 1.74 % of control sample and 4.21 % of control sample, respectively. Also, the “GC-HS area Limonene” value in data set [2] (enabler 0.05%) is recorded as 1825472; in data set [2] (enabler 0.1%), 1886916; in data set [2] (enabler 0.5%) it was 2004605.
For the compound `CC(=O)O` [Acetic acid], the “ability of enabler” value in data set [3] was “effectively encapsulate menthol”. Moreover, the “GC-HS area Menthol” value is 708 in data set [3] (enabler concentration 0.05%); 1030 in data set [3] (enabler concentration 0.1%); 925 in data set [3] (enabler concentration 0.5%); 105 in data set [2] (enabler 0.05%); 174 in data set [2] (enabler 0.1%); 399 in data set [2] (enabler 0.5%). Moreover, the “GC-HS area (% of control sample)” value is given as 0.94 % of control sample in data set [3] (enabler 0.05%), 1.37 % of control sample in data set [3] (enabler 0.1%) and 1.23 % of control sample in data set [3] (enabler 0.5%). For the same compound, the “GC-HS area (% of control sample) Limonene” value was 91.77 % of control sample in data set [2] (enabler 0.05%), 112.66 % of control sample in data set [2] (enabler 0.1%) and 97.95 % of control sample in data set [2] (enabler 0.5%). Moreover, the “GC-HS area (% of control sample) Menthol” value in data set [2] (enabler 0.05%) is on record as 0.50 % of control sample; in data set [2] (enabler 0.1%), 0.82 % of control sample; in data set [2] (enabler 0.5%), 1.89 % of control sample. For the same compound, the “GC-HS area Limonene” value is reported as 1860568 in data set [2] (enabler 0.05%), 2096101 in data set [2] (enabler 0.1%) and 2053175 in data set [2] (enabler 0.5%).
